Assay [1] has as its target High affinity nerve growth factor receptor (Homo sapiens, UniProt P04629). Kind of assay: Selectivity interaction (SelectScreen profiling (Invitrogen)) EUB0000607a NTRK1. The conditions noted are these: at 2 µM.
For assay [2], the target named is Ribosomal protein S6 kinase alpha-3 (Homo sapiens, UniProt P51812). The following applies: at 10 µM.
Assay [3] deals with DNA-dependent protein kinase catalytic subunit (Homo sapiens) (UniProt P78527). Kind of assay: Selectivity interaction (ActivX KiNativ screen (ex vivo kinase selectivity in human PBMCs)) EUB0001619a PRKDC. It is filed as cell-based. The following applies: PBMC, at 1 µM.
Assay [4] deals with Serine/threonine-protein kinase Nek6 (Homo sapiens) (UniProt Q9HC98). Kind of assay: Selectivity interaction (KinomeScan (DiscoverX)) EUB0001619a NEK6. The conditions noted are these: at 1 µM.
In assay [5] the target is T1, Mitogen-activated protein kinase 13 (Homo sapiens) (UniProt O15264).
T1 sequence (whole entry): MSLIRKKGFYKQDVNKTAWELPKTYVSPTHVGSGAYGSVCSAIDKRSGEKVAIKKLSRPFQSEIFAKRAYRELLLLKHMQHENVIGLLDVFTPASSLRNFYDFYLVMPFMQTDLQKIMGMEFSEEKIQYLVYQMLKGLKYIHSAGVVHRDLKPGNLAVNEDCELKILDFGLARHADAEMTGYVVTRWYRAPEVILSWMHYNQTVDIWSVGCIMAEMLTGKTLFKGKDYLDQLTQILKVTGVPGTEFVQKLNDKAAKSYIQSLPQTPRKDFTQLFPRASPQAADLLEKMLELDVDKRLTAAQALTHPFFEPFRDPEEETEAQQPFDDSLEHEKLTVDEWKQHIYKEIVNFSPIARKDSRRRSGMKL
Kind of assay: Selectivity interaction (ProQinase) EUB0000171b MAPK13.

Assay [6] has as its target T2, Receptor-interacting serine/threonine-protein kinase 1 (Homo sapiens) (UniProt Q13546).
T2 sequence (whole entry): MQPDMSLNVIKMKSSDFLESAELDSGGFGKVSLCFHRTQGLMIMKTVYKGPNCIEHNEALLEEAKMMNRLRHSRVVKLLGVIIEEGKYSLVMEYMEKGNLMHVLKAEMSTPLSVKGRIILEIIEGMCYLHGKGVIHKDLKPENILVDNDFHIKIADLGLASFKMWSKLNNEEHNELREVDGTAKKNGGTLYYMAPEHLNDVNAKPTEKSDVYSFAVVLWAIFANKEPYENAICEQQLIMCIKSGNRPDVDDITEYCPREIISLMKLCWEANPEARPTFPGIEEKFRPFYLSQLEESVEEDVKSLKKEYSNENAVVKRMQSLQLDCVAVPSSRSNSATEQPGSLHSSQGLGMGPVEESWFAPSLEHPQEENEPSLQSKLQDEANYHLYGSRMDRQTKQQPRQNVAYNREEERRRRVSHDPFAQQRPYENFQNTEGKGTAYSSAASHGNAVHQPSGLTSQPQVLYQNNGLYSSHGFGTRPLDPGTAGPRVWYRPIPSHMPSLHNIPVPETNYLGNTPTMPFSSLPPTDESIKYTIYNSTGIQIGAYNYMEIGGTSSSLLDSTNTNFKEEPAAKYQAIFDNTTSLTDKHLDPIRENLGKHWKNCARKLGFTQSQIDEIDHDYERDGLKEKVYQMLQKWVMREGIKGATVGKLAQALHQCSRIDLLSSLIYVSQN
Kind of assay: Selectivity interaction (KinomeScan (DiscoverX)) EUB0000045b RIPK1.

For assay [7], the target named is T3, Bone morphogenetic protein receptor type-2 (Homo sapiens) (UniProt Q13873).
T3 sequence (whole entry): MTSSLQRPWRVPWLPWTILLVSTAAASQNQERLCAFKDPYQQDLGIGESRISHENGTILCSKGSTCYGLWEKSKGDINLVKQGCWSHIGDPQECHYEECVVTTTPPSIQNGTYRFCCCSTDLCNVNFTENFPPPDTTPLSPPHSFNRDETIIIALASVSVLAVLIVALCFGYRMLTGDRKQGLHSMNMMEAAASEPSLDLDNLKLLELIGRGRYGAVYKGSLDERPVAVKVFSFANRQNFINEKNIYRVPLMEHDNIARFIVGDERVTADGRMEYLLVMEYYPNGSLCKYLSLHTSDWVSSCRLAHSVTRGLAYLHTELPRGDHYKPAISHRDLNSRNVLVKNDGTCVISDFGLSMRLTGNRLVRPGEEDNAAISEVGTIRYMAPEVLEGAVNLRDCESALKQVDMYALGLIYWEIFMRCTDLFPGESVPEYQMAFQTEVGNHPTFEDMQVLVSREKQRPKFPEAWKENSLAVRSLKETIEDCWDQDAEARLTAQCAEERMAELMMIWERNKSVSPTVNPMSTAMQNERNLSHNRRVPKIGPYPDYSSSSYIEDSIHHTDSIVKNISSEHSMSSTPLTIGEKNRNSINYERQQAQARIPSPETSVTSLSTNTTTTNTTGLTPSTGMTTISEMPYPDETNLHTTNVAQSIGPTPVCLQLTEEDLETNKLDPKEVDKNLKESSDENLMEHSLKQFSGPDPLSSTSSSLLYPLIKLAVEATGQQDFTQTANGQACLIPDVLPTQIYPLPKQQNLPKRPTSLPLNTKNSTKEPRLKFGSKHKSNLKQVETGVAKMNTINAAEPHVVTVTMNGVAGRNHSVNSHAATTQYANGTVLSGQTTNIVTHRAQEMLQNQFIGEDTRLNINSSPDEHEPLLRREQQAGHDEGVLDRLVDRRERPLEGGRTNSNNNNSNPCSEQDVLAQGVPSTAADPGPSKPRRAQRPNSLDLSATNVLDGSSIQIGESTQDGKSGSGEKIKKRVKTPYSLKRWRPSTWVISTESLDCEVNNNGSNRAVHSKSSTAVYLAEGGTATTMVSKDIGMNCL
Kind of assay: Selectivity interaction (KinomeScan (DiscoverX)) EUB0000618a BMPR2. The following applies: at 10 µM.

Each structure is given as a SMILES string.

Sequence of High affinity nerve growth factor receptor (P04629 33-796 limits assumed): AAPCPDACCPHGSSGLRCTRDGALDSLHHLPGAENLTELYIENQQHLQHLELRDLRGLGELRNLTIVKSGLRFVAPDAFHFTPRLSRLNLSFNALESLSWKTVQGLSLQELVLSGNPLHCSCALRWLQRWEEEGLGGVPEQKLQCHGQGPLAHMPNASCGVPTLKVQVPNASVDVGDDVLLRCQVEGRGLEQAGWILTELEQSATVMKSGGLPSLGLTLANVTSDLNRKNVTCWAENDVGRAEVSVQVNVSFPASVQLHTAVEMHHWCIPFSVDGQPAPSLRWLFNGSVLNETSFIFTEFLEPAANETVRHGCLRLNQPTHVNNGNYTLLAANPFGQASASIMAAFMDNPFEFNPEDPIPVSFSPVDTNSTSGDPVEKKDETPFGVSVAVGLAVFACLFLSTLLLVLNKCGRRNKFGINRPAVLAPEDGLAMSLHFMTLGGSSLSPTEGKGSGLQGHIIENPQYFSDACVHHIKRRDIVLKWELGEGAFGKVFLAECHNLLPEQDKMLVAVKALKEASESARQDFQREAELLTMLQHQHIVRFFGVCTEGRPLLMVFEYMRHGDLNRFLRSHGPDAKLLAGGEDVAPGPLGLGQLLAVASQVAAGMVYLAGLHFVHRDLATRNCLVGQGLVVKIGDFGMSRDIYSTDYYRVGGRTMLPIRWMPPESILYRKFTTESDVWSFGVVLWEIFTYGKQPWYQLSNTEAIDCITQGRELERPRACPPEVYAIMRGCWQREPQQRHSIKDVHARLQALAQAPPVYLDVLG
Sequence of DNA-dependent protein kinase catalytic subunit (Homo sapiens) (P78527 whole entry): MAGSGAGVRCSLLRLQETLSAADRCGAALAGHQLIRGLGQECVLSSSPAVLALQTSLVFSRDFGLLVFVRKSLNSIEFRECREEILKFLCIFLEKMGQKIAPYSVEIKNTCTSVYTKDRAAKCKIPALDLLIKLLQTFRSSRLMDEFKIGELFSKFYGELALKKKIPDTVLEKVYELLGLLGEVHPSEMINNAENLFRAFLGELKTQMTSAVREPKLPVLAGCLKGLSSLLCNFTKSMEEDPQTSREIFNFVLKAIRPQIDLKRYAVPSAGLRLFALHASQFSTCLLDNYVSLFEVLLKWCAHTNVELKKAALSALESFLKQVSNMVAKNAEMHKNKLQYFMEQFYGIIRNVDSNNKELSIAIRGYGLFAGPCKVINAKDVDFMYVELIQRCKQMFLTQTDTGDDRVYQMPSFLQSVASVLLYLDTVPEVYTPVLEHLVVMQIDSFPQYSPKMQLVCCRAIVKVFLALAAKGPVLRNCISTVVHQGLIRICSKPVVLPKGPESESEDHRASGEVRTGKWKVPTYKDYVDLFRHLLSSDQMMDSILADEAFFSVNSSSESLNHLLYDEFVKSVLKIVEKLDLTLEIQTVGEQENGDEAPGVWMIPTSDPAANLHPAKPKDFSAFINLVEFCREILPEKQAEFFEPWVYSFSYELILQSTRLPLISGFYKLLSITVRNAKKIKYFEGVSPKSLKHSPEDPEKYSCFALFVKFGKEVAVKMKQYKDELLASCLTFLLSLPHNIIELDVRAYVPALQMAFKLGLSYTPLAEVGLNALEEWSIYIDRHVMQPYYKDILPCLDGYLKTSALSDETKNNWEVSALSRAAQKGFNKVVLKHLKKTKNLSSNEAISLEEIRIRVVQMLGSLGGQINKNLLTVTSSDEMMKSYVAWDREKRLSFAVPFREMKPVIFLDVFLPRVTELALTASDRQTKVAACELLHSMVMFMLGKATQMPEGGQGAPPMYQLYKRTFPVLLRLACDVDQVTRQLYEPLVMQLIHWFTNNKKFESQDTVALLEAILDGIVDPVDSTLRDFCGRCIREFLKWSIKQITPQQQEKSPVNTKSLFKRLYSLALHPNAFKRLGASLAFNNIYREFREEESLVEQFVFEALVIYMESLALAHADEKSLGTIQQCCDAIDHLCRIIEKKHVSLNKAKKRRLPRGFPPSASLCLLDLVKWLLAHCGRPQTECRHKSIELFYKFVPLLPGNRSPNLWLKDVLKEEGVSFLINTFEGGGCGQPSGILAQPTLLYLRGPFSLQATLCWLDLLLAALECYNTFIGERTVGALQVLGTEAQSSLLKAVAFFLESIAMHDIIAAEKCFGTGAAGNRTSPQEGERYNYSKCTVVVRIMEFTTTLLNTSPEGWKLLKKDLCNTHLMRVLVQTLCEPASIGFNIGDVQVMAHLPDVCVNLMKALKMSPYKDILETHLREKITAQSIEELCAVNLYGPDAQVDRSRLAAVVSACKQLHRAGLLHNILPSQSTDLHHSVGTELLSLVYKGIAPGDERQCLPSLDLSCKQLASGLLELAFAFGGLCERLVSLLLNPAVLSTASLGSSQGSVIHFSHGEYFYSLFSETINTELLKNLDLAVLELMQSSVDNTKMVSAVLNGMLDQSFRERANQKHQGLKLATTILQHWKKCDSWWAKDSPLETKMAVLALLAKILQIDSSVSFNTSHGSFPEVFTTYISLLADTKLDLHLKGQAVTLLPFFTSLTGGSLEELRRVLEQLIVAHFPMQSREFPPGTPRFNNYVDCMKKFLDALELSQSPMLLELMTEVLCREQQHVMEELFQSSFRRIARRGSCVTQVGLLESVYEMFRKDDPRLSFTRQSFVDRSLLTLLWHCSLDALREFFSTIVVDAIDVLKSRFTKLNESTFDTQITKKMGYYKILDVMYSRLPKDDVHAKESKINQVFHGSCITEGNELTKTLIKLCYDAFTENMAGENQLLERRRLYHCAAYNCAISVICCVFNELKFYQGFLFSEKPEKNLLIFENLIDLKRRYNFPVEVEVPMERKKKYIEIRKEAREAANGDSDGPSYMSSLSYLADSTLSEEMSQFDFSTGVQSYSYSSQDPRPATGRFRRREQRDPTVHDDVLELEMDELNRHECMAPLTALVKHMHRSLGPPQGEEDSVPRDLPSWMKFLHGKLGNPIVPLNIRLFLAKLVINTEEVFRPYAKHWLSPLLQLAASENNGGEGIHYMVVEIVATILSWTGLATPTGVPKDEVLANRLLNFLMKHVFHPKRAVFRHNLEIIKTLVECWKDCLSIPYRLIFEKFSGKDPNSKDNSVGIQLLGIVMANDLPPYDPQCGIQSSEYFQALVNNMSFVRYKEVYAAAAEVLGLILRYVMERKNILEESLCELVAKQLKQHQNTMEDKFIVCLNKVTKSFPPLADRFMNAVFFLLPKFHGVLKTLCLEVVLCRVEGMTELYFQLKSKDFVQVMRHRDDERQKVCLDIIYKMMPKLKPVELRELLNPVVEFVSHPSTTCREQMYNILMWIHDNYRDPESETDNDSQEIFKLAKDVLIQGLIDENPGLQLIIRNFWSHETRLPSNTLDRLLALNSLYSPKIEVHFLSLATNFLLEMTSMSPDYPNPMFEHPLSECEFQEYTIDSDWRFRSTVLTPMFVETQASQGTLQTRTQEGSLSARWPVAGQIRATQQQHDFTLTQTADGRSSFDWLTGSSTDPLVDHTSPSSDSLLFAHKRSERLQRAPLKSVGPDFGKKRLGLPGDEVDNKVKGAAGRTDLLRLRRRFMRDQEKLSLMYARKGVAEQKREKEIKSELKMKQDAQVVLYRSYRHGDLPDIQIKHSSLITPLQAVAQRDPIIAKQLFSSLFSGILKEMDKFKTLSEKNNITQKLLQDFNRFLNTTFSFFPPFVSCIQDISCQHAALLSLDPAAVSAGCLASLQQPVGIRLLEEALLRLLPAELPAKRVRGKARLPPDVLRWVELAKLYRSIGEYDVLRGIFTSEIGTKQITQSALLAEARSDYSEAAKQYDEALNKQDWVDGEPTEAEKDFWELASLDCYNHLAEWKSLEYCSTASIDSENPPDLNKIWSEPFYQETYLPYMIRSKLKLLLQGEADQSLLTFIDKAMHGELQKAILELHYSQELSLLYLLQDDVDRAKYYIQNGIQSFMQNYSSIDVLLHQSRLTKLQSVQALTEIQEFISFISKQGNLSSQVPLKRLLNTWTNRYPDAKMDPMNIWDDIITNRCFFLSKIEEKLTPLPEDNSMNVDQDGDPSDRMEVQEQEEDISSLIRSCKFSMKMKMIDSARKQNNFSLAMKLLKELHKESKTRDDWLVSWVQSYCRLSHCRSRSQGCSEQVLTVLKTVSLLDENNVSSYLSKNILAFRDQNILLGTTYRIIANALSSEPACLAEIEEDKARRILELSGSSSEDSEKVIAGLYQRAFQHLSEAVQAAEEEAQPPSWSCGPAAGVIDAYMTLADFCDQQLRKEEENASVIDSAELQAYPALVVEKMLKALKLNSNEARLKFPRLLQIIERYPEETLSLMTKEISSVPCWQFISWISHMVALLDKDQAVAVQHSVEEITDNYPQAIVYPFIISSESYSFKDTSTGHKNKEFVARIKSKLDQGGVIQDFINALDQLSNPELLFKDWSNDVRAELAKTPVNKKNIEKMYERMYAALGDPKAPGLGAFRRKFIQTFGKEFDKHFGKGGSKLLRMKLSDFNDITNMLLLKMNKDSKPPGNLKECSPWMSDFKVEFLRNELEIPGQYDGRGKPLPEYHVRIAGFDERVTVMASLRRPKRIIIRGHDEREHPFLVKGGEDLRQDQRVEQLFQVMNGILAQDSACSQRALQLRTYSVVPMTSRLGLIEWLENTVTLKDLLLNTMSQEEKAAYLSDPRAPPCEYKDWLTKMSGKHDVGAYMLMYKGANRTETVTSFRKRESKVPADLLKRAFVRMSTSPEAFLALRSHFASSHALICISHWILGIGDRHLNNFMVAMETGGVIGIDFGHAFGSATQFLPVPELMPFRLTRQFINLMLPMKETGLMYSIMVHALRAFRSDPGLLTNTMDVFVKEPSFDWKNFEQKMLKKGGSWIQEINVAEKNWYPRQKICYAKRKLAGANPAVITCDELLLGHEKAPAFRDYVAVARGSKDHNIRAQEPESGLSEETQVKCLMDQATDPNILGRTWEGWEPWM

`CNC(=O)Nc1ccc(-c2nc(N3CC4CCC(C3)O4)c3cnn(C4CCC5(CC4)OCCO5)c3n2)cc1`: the % of inhibition in assay [1] came to 7%.
In turn, `Cc1cc([C@@H](C)Nc2ccccc2C(=O)O)c2nc(N3CCOCC3)cc(=O)n2c1` [AZD-6482] registered a % of control in assay [2] of 91%.
Take `N#Cc1cccc(-c2c[nH]c3ncnc(N4CCOCC4)c23)c1`: in assay [3], the % of inhibition was -6%. This compound also yielded a % of control in assay [4] of 100%.
For `C=CC(=O)Nc1cccc(C(=O)Nc2ccc(Nc3cc(-c4[nH]c(SC)nc4C)ccn3)cc2)c1`, the % of control in assay [5] (at 1 µM) is 91%; in assay [5] (at 5 µM) it was 80%.
With `C=CC(=O)Nc1cc(-n2c(=O)ccc3cnc4ccc(-c5ccc(NS(C)(=O)=O)cc5)cc4c32)ccc1C`, the % of control in assay [6] (at 1 µM) stood at 87%; in assay [6] (at 10 µM), 100%.
In assay [7], `O[C@H]1CC[C@H](Nc2ncc3nc(Nc4c(F)cc(F)cc4F)n([C@H]4CCOC4)c3n2)CC1` had a % of control of 78%.
